Results taken from US7655688B2, “Fused cyclic succinimide compounds and analogs thereof, modulators of nuclear hormone receptor function” (Bristol-Myers Squibb Company, priority 2001, dated 2010).
Read-outs that look alike come from different tables or passages of the source.

Experiments:
[1] = system: GR induced AP-1 transrepression; assay: In vitro assay to measure GR induced AP-1 transrepression (luciferase reporter, A549 cells); assay type: cell-based; conditions: concentration of ≦10 μM; 10 ng/ml PMA; typical value
Procedure: The AP-1 assay is a cell based luciferase reporter assay. A549 cells, which contain endogenous glucocorticoid receptor, were stably transfected with an AP-1 DNA binding site attached to the luciferase gene. Cells are then grown in RPMI+10% fetal calf serum (charcoal-treated)+Penicillin/Streptomycin with 0.5 mg/ml geneticin. Cells are plated the day before the assay at approximately 40000 cells/well. On assay day, the media is removed by aspiration and 20 μl assay buffer (RPMI without phenol red+10% FCS (charcoal-treated)+Pen/Strep) is added to each well. At this point either 20 μl assay buffer (control experiments), the compounds of the present invention (“test compounds”) (dissolved in DMSO and added at varying concentrations) or dexamethasome (100 nM in DMSO, positive control) are added to each well. The plates are then pre-incubated for 15 minutes at 37° C., followed by stimulation of the cells with 10 ng/ml PMA. The plates are then incubated for 7 hrs at 37° C. after which 40 μl luciferase substrate reagent is added to each well. Activity is measured by analysis in a luminometer as compared to control experiments treated with buffer or dexamethasome. […] The control, dexamethasone, at a concentration of ≦10 μM typically suppresses activity by 65%.

AR [2] = molecular target: T1, AR (Rattus norvegicus, UniProt P15207); conditions: castrated rats
T1 sequence (P15207 1-902): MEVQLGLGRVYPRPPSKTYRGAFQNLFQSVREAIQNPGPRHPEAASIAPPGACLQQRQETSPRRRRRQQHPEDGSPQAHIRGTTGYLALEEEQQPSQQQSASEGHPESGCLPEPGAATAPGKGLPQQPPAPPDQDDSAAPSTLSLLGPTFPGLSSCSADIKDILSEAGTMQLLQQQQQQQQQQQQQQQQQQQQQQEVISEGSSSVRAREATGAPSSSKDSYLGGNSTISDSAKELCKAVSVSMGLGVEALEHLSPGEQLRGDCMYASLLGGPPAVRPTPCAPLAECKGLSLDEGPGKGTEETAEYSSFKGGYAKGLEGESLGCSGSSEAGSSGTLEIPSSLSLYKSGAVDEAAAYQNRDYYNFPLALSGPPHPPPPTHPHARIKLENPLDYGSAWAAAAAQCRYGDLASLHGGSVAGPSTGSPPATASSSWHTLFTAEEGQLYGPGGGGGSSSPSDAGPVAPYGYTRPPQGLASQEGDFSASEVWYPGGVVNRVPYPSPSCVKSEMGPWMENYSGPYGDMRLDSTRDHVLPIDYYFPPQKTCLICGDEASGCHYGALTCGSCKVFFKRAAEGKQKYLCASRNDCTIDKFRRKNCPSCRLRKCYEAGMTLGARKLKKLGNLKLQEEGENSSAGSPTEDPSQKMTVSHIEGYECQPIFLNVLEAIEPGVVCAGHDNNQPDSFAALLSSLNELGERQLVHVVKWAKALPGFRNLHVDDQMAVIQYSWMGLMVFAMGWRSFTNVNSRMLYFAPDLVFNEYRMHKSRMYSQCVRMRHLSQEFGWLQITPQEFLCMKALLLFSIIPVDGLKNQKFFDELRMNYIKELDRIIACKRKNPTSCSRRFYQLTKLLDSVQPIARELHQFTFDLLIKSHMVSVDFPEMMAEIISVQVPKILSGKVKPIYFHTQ
Excerpt: The activity of compounds of the present invention as AR agonists was investigated in an immature male rat model, a recognized test of anabolic effects in muscle and sustaining effects in sex organs for a given compound, as described in L. G. Hershberger et al., Proc. Soc. […] Nem.
The basis of this assay lies in the well-defined action of androgenic agents on the maintenance and growth of muscle tissues and sexual accessory organs in animals and man. […] J. Anat. […] Ital. Biol. Sper. […] II. […] Ital. Biol. Sper. […] As described above, the effects of androgens on maintenance of male sexual accessory organs, such as the prostate and seminal vesicles, is well described. Castration results in rapid involution and atrophy of the prostate and seminal vesicles. This effect can be reversed by exogenous addition of androgens. Since both the levator ani muscle and the male sex organs are the tissues most responsive to the effects of androgenic agents, this model is used to determine the androgen dependent reversal of atrophy in the levator ani muscle and the sex accessory organs in immature castrated rats. Sexually mature rats (200-250 g, 6-8 weeks-old, Sprague-Dawley, Harlan) were acquired castrated from the vendor (Taconic). The rats were divided into groups and treated daily for 7 to 14 days with one of the following: • 1. Control vehicle • 2. […]

AR [3] = molecular target: T1, AR

Compound | suppression of activity (% inhibition of the reporter system vs buffer control with PMA alone) [1] [%] | EC50 (increase in organ weight) (AR [2]; dosing for 3 days) [mg] | potency relative to free T (AR [2]; organ weight) | ED80 (organ weight increase) (AR [3]; immature castrated rat model) [mg] | EC50 (increase in organ weight) (AR [3]; immature castrated rats, dosing for 3 days) [mg] | potency relative to free T (AR [3]; immature castrated rats, organ weight)
C[C@@H]1C[C@H]2[C@@H]3CCC4=CC(=O)C=C[C@]4(C)[C@@]3(F)[C@@H](O)C[C@]2(C)[C@@]1(O)C(=O)CO [dexamethasone] | 65 | – | – | – | – | –
CCC(=O)O[C@H]1CC[C@H]2[C@@H]3CCC4=CC(=O)CC[C@]4(C)[C@H]3CC[C@]12C [TP, Testosterone Propionate] | – | ~0.03 | 10-30 fold | 0.1 | ~0.03 | 10-30 fold
